Legend:
Format in all cases: biochemical
[1] = molecular target: T1, human MAGL (Homo sapiens, UniProt Q99685); test: MAGL activity assay (AA-HNA fluorogenic substrate); details: 100 µM, AA-HNA substrate assay, Supplementary Table 1; read-out: MAGL Inhibition (%)
T1 construct: expressed in transfected cells; host or cells: HEK293T (transient transfection; membrane fraction)
T1 sequence (Q99685 1-303): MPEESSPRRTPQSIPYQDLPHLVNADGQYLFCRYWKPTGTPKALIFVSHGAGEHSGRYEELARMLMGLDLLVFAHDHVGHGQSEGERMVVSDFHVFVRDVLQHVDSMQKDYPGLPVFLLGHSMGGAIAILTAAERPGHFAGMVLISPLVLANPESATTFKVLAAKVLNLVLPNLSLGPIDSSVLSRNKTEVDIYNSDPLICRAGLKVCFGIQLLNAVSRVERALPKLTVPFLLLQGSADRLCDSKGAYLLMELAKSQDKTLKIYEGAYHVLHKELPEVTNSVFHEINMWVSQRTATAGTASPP
Procedure: (§1) HEK293T cells were cultured at 37°C under 5% CO2 in a DMEM medium with stable glutamine and phenolred, containing 10% fetal bovine serum (FBS, Gibco), penicillin, and streptomycin. The cells were passaged every 2–3 days by resuspension in the medium at ∼90% confluence. The membranes used in this study were prepared from transiently transfected HEK293T cells. Briefly, 1 day prior to transfection, ∼10^7 cells were seeded in 15 cm plates, and then the cells were transfected by the addition of a mixture of polyethyleneimine and plasmid DNA (3:1, 60, and 20 µg) in 2 ml of medium (without serum). Of note, the empty pcDNA3.1 vector was used in the Mock-control. After 24 h, the medium was removed and the cells were refreshed with fresh medium. After 72 h, the cells were harvested by suspending in 20 ml of medium, and the supernatant was removed by centrifugation for 10 min at 1,000 rpm. The cell pellet was flash frozen in liquid nitrogen and stored at −80°C until use. Subsequently, the cell pellets were suspended in lysis buffer (30 mM Tirs, pH 7.5, 1 mM MgCl2, 25 U/ml Benzonase), which was homogenized by sonication (3 × 10 bursts) and incubated for 30 min on ice. The membrane fractions overexpressing MAGL/ABHD6/ABHD12 were separated by ultracentrifuge (100,000 g, 30 min, 4 C). The protein concentration was determined with a Qubit protein assay (Invitrogen). The protein samples were quickly frozen in liquid nitrogen and stored at −80 C until use.
The MAGL activity assay is based on the hydrolysis of 2-arachidonoylglycerol-based fluorogenic substrate by MAGL-overexpressing membrane preparations from transiently transfected HEK293T cells. In brief, the reactions were performed in HEPES buffer (40 mM HEPES, pH 7.5, 0.1 mg/ml BSA) in black, flat bottom 96-well plates. […] After the incubation of the inhibitor-protein complex for 30 min, 10 µl of the fluorogenic substrate (AA-HNA, 200 µM) was added and fluorescence was measured in 1 min intervals for 30 min on a plate reader (BioTek). […] All the measurements were performed in N = 2, n = 2 for inhibitors and N = 2, n = 4 for controls with Z′ value ≥0.6. The slope is determined in 5–15 min for all the experiments.

[2] = molecular target: T2, human ABHD12 (Homo sapiens, UniProt Q8N2K0); test: ABHD12 activity by competitive ABPP with FP-TAMRA; details: 100 µM compound; competitive ABPP with probe FP-TAMRA (250 nM); read-out: ABHD12 Inhibition (%)
T2 construct: expressed in transfected cells; host or cells: HEK293T (transient transfection; membrane fraction)
T2 sequence (Q8N2K0 1-398): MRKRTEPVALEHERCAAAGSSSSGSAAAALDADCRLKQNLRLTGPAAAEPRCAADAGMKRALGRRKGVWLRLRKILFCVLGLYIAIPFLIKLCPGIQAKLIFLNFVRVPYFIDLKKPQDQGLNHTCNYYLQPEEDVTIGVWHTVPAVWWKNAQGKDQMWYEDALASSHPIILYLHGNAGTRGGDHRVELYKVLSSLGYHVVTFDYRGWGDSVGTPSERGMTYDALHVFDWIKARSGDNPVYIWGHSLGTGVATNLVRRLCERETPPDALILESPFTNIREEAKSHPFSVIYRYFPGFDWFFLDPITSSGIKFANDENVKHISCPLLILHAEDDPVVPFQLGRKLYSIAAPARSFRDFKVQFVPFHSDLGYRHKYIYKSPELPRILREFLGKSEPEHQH
Procedure: as §1
The ABHD12 activity assay is based on competitive activity-based protein profiling (ABPP) with human ABHD12 overexpressing membrane fractions. Briefly, the membrane proteome (1 mg/ml, 20 µl) was incubated at room temperature with 0.5 µl DMSO (vehicle) or inhibitor for 30 min. Subsequently, the samples were treated with the activity-based probe FP-TAMRA (250 nM, final concentration) for 20 min. The reactions were then quenched by 10 µl sample buffer (×4) (final concentrations: 60 mM Tris, pH 6.8, 2% (w/v) SDS, 10% (v/v) glycerol, 5% (v/v) β-mercaptoethanol, 0.01% (v/v) bromophenol blue). The samples were directly loaded and resolved on SDS-PAGE gel (10% acrylamide), which were then scanned using a ChemiDoc MP system (Cy3 settings, BioRad).

[3] = molecular target: T3, human ABHD6 (Homo sapiens, UniProt Q9BV23); test: ABHD6 activity assay (AA-HNA fluorogenic substrate); details: 100 µM, AA-HNA substrate assay, Supplementary Table 2; read-out: ABHD6 Inhibition (%)
T3 construct: expressed in transfected cells; host or cells: HEK293T (transient transfection; membrane fraction)
T3 sequence (Q9BV23 1-337): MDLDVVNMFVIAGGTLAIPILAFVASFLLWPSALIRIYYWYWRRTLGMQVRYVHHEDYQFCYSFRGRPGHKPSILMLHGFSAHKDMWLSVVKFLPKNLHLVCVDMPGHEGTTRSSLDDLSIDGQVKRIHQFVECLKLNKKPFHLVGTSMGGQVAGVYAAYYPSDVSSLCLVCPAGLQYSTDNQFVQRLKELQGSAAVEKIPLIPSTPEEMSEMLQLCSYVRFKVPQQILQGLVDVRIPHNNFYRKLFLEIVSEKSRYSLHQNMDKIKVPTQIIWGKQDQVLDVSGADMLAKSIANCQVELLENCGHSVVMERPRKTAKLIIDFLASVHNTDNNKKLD
Procedure: as §1
The MAGL activity assay is based on the hydrolysis of 2-arachidonoylglycerol-based fluorogenic substrate by MAGL-overexpressing membrane preparations from transiently transfected HEK293T cells. In brief, the reactions were performed in HEPES buffer (40 mM HEPES, pH 7.5, 0.1 mg/ml BSA) in black, flat bottom 96-well plates. The final protein concentration of membrane fractions from overexpressing human MAGL HEK293T cells was 12.5 μg/ml 5 µl of inhibitors were added from×40 concentrated DMSO stocks in the 96-well plate containing 145 µl assay buffer, followed by the addition of 40 µl of the protein (12.5 μg/ml). After the incubation of the inhibitor-protein complex for 30 min, 10 µl of the fluorogenic substrate (AA-HNA, 200 µM) was added and fluorescence was measured in 1 min intervals for 30 min on a plate reader (BioTek). Final assay concentrations: 12.5 μg/ml MAGL, […], and […] in the total volume of 200 µl. All the measurements were performed in N = 2, n = 2 for inhibitors and N = 2, n = 4 for controls with Z′ value ≥0.6. The slope is determined in 5–15 min for all the experiments.
The ABHD6 activity assay is based on the same principle as the MAGL activity assay described earlier, but with human ABHD6 overexpressing membrane preparations at a final protein concentration of 50 μg/ml and 200 µM AA-HNA. Other conditions are the same as those of the MAGL activity assay.

| Structure (SMILES) | activity [1] [%] | activity [2] [%] | activity [3] [%] | activity at 100 µM [1] [%] | activity at 100 µM [2] [%] | activity at 100 µM [3] [%] |
| --- | --- | --- | --- | --- | --- | --- |
| C[C@H](CCC(=O)O)[C@H]1CC[C@H]2[C@@H]3C[C@H](O)[C@@H]4C[C@H](O)CC[C@]4(C)[C@H]3CC[C@]12C [compound 40, Hyodeoxycholic] | 97 | 70.8 | 95.4 |  |  |  |
| C[C@H]1[C@H](OC(=O)CCC(=O)O)O[C@@H]2O[C@@]3(C)CC[C@H]4[C@H](C)CC[C@@H]1[C@@]24OO3 [compound 11, Artesunate] |  |  |  | 106 | 56.2 | 46.5 |
| O=[N+]([O-])c1ncc[nH]1 [compound 13, Azomycin] |  |  |  | 89.9 | 87.7 | 112 |
| O=C1CCC[C@@H]2[C@H]3CCC[N+]4([O-])CCC[C@@H](CN12)[C@@H]34 (stereo partly drawn) [compound 63, Oxymatrine] |  |  |  | 99.9 | 91.3 | 102 |
| O=C(/C=C/c1ccc(O)c(O)c1)O[C@@H]1C[C@](O)(C(=O)O)C[C@@H](O)[C@H]1O [compound 20, Chlorogenic acid] |  |  |  | 95.2 | 78.1 | 102 |
| N#C[C@H](O[C@@H]1O[C@H](CO[C@@H]2O[C@H](CO)[C@@H](O)[C@H](O)[C@H]2O)[C@@H](O)[C@H](O)[C@H]1O)c1ccccc1 [compound 7, Amygdalin] |  |  |  | 75.9 | 69.8 | 90.2 |
| C[C@H]1[C@H](C)CC[C@]2(C(=O)O)CC[C@]3(C)C(=CC[C@@H]4[C@@]5(C)C[C@@H](O)[C@H](O)[C@@](C)(CO)[C@@H]5CC[C@]43C)[C@H]12 [compound 12, Asiatic acid] |  |  |  | 86 | 72.4 | 95.6 |
| CC1(C)CC[C@]2(C(=O)O)CC[C@]3(C)C(=CC[C@@H]4[C@@]5(C)CC[C@H](O)C(C)(C)[C@@H]5CC[C@]43C)[C@@H]2C1 [compound 59, Oleanolic Acid] |  |  |  | 130 | 57.7 | 98.5 |
| CCn1cc(C(=O)O)c(=O)c2ccc(C)nc21 [compound 54, Nalidixic acid] |  |  |  | 143 | 82.2 | 100 |
| C[C@@H]1O[C@@H](O)[C@H](O)[C@H](O)[C@H]1O [compound 45, L-(+)-Rhamnose Monohydrate] | 81.1 | 80.6 | 98.8 |  |  |  |
| C[C@H]1[C@@H](O)O[C@@H]2O[C@@]3(C)CC[C@H]4[C@H](C)CC[C@@H]1[C@@]24OO3 [compound 26, Dihydroartemisinin] |  |  |  | 92.5 | 81.1 | 89.2 |
| O=c1c(-c2ccc(O)cc2)coc2c([C@@H]3O[C@H](CO)[C@@H](O)[C@H](O)[C@H]3O)c(O)ccc12 [compound 69, Puerarin] |  |  |  | 94.8 | 104 | 119 |

Reference: article PMC9465256, “Discovering monoacylglycerol lipase inhibitors by a combination of fluorogenic substrate assay and activity-based protein profiling” (Frontiers in Pharmacology, 2022)
